Assay results reported in ChEMBL document CHEMBL4834451, “Anti-chronic myeloid leukemia activity and quantitative structure-activity relationship of novel thiazole aminobenzamide derivatives” (Bioorg Med Chem Lett, 2021).

Legend:
K562 = assay: Antiproliferative activity against human K562 cells by MTS assay; assay type: functional, cell-based
[1] = Antiproliferative activity against imatinib-resistant human K562R cells by MTS assay; assay type: functional, cell-based
L02 = assay: Antiproliferative activity against human L02 cells by MTS assay; assay type: cell-based
BaF3 = assay: Antiproliferative activity against mouse BaF3 cells harbouring BCR-ABL T315I mutant by MTS assay; assay type: cell-based
[2] = K562, read-out: pIC50 (converted)

IC50 (K562) [µM]	IC50 (BaF3) [µM]	SMILES	IC50 ([1]; K562, read-out: IC50) [µM]	IC50 [1, 2] [µM]	IC50 (L02) [µM]
48.8	–	Cc1ccc(-c2nc(Nc3cccc(C(=O)N[C@@H](Cc4ccccc4)C(=O)O)c3)sc2C)cc1	63.4	63.4	> 100
79.5	–	Cc1sc(Nc2cccc(C(=O)N[C@@H](Cc3ccccc3)C(=O)O)c2)nc1-c1ccc(F)cc1	41.3	41.3	> 100
83.6	–	CC(=O)[C@H](Cc1ccccc1)NC(=O)c1cccc(Nc2nc(-c3ccc(C)cc3)c(C)s2)c1	14.7	14.7	> 100
> 100	–	CCc1sc(Nc2cccc(C(=O)N[C@@H](Cc3ccccc3)C(=O)O)c2)nc1-c1ccc(Cl)cc1	> 100	–	> 100
53.1	–	CC(=O)[C@H](Cc1ccccc1)NC(=O)c1cccc(Nc2nc(-c3ccccc3)c(C)s2)c1	30.2	30.2	> 100
61.7	–	CCc1sc(Nc2cccc(C(=O)NCC(C)=O)c2)nc1-c1ccccc1	17.6	17.6	> 100
28.7	19.8	CC(=O)[C@H](Cc1ccccc1)NC(=O)c1cccc(Nc2nc(-c3ccc(C(F)(F)F)cc3)c(C)s2)c1	8.47	8.47	> 100
> 100	–	CC(=O)CNC(=O)c1cccc(Nc2nc(-c3ccccc3)c(C)s2)c1	> 100	–	> 100
87.8	> 64	Cc1sc(Nc2cccc(C(=O)NCC(=O)O)c2)nc1-c1ccc(F)cc1	> 100	–	> 100
> 100	–	CCc1sc(Nc2cccc(C(=O)NCC(=O)O)c2)nc1-c1ccccc1	> 100	–	> 100
66	–	Cc1sc(Nc2cccc(C(=O)N[C@@H](Cc3ccccc3)C(=O)O)c2)nc1-c1ccccc1	86.8	86.9	> 100
60.5	–	Cc1sc(Nc2cccc(C(=O)NCC(=O)O)c2)nc1-c1ccc(Cl)cc1	71.5	71.4	> 100
57.6	–	Cc1sc(Nc2cccc(C(=O)NCC(=O)O)c2)nc1-c1ccccc1	61.7	61.7	> 100
> 100	–	CCc1sc(Nc2cccc(C(=O)N[C@@H](Cc3ccccc3)C(C)=O)c2)nc1-c1ccc(Cl)cc1	15.9	15.9	> 100
66.3	> 64	CC(=O)CNC(=O)c1cccc(Nc2nc(-c3ccc(O)cc3)c(C)s2)c1	68.3	68.2	> 100
4.63	–	Cc1ccc(NC(=O)c2ccc(CN3CCN(C)CC3)cc2)cc1Nc1nccc(-c2cccnc2)n1 [IMATINIB]	> 100	–	> 100
> 100	–	CC(=O)CNC(=O)c1cccc(Nc2nc(-c3ccc(Cl)cc3)c(C)s2)c1	> 100	–	> 100

IC50 (K562) [µM]	IC50 (BaF3) [µM]	SMILES	IC50 ([1]; K562, read-out: IC50) [µM]	IC50 [1, 2] [µM]	IC50 (L02) [µM]
51	–	Cc1sc(Nc2cccc(C(=O)N[C@@H](Cc3ccccc3)C(=O)O)c2)nc1-c1ccc(Cl)cc1	48.1	48.1	> 100
> 100	–	CCc1sc(Nc2cccc(C(=O)NCC(C)=O)c2)nc1-c1ccc(Cl)cc1	> 100	–	> 100
8.32	36.6	CC(=O)[C@H](Cc1ccccc1)NC(=O)c1cccc(Nc2nc(-c3ccc(O)cc3)c(C)s2)c1	7.31	7.31	> 100
> 100	–	CC(=O)CNC(=O)c1cccc(Nc2nc(-c3ccc(F)cc3)c(C)s2)c1	> 100	–	> 100
40.9	–	CC(=O)CNC(=O)c1cccc(Nc2nc(-c3ccc(C(F)(F)F)cc3)c(C)s2)c1	35.4	35.4	> 100
> 100	–	Cc1ccc(-c2nc(Nc3cccc(C(=O)NCC(=O)O)c3)sc2C)cc1	> 100	–	> 100
93.3	–	CCc1sc(Nc2cccc(C(=O)N[C@@H](Cc3ccccc3)C(=O)O)c2)nc1-c1ccccc1	78	78	> 100
71.8	–	Cc1sc(Nc2cccc(C(=O)NCC(=O)O)c2)nc1-c1ccc(O)cc1	> 100	–	> 100
68.9	–	Cc1sc(Nc2cccc(C(=O)N[C@@H](Cc3ccccc3)C(=O)O)c2)nc1-c1ccc(O)cc1	62.9	63	> 100
44.1	–	Cc1sc(Nc2cccc(C(=O)N[C@@H](Cc3ccccc3)C(=O)O)c2)nc1-c1ccc(C(F)(F)F)cc1	78.1	78.2	> 100
> 100	–	CCc1sc(Nc2cccc(C(=O)NCC(=O)O)c2)nc1-c1ccc(Cl)cc1	> 100	–	> 100
28.6	19.1	CC(=O)[C@H](Cc1ccccc1)NC(=O)c1cccc(Nc2nc(-c3ccc(F)cc3)c(C)s2)c1	12.8	12.9	> 100
51.4	–	CC(=O)[C@H](Cc1ccccc1)NC(=O)c1cccc(Nc2nc(-c3ccc(Cl)cc3)c(C)s2)c1	11.3	11.4	> 100
> 100	–	CCc1sc(Nc2cccc(C(=O)N[C@@H](Cc3ccccc3)C(C)=O)c2)nc1-c1ccccc1	17.2	17.2	> 100
34.8	> 64	Cc1sc(Nc2cccc(C(=O)NCC(=O)O)c2)nc1-c1ccc(C(F)(F)F)cc1	> 100	–	> 100
> 100	–	CC(=O)CNC(=O)c1cccc(Nc2nc(-c3ccc(C)cc3)c(C)s2)c1	50.2	50.2	> 100
